From ChEMBL document CHEMBL2150933 (J Med Chem, 2012)
Calls of active or inactive are those of the source. The rule behind the calls is not given here.

Experiments:
MDA-MB-468 = assay: Cytotoxicity against human MDA-MB-468 cells after 48 hrs by SRB assay; format: functional; conditions: MDA-MB-468, 48 h
[1] = Toxicity in iv dosed CD1 mouse administered as single dose; format: organism-based; conditions: in vivo
[2] = Toxicity in ip dosed CD1 mouse administered as single dose; format: organism-based; conditions: in vivo
Mus musculus [3] = assay: Toxicity in iv dosed CD1 mouse administered Q2D for 8 days; format: organism-based; conditions: mouse, in vivo, 192 h
Mus musculus [4] = assay: Toxicity in iv dosed CD1 mouse administered Q3D for 8 days; format: organism-based; conditions: in vivo, 192 h
[5] = Plasma concentration in CD1 mouse at 18 mg/kg, iv administered as single dose measured after 30 mins; format: ADME, organism-based; design: dose 18 mg/kg, route intravenous
[6] = Plasma concentration in CD1 mouse at 18 mg/kg, iv administered as single dose measured after 120 mins; format: ADME, organism-based; design: dose 18 mg/kg, route intravenous
COLO 205 [7] = assay: Antitumor activity against human COLO205 cells xenografted in athymic nu/nu Harlan mouse assessed as tumor growth inhibition at 10 mg/kg, iv administered Q2D for 10 days relative to control; format: functional, organism-based; design: dose 10 mg/kg
COLO 205 [8] = assay: Antitumor activity against human COLO205 cells xenografted in athymic nu/nu Harlan mouse assessed as tumor growth inhibition at 20 mg/kg, iv administered Q3D for 10 days relative to control; format: functional, organism-based; design: dose 20 mg/kg
SK-MEL-2 = assay: Antitumor activity against human SK-MEL-2 cells xenografted in athymic nu/nu Harlan mouse assessed as tumor growth inhibition at 10 mg/kg, iv administered Q2D for 10 days relative to control; format: functional, organism-based; design: dose 10 mg/kg
Mus musculus [9] = assay: Toxicity in athymic nu/nu Harlan mouse xenografted with human COLO205 cells assessed as adverse reactions at 10 mg/kg, iv administered Q2D for 10 days relative to control; format: organism-based, COLO 205; design: dose 10 mg/kg, route intravenous; conditions: in vivo, 240 h
Mus musculus [10] = assay: Toxicity in athymic nu/nu Harlan mouse xenografted with human COLO205 cells assessed as mortality at 10 mg/kg, iv administered Q2D for 10 days relative to control; format: organism-based, COLO 205; design: dose 10 mg/kg, route intravenous; conditions: in vivo, 240 h
Mus musculus [11] = assay: Toxicity in athymic nu/nu Harlan mouse xenografted with human COLO205 cells assessed as change in body weight at 10 mg/kg, iv administered Q2D for 10 days relative to control; format: organism-based, COLO 205; design: dose 10 mg/kg, route intravenous; conditions: in vivo, 240 h
Mus musculus [12] = assay: Toxicity in athymic nu/nu Harlan mouse xenografted with human SK-MEL-2 cells assessed as mortality at 10 mg/kg, iv administered Q2D for 10 days relative to control; format: organism-based; design: dose 10 mg/kg, route intravenous; conditions: in vivo, 240 h
Mus musculus [13] = assay: Toxicity in athymic nu/nu Harlan mouse xenografted with human SK-MEL-2 cells assessed as mortality at 20 mg/kg, iv administered Q3D for 10 days relative to control; format: organism-based; design: dose 20 mg/kg, route intravenous; conditions: in vivo, 240 h
Mus musculus [14] = assay: Toxicity in athymic nu/nu Harlan mouse xenografted with human SK-MEL-2 cells assessed as change in body weight at 10 mg/kg, iv administered Q2D for 10 days relative to control; format: organism-based; design: dose 10 mg/kg, route intravenous; conditions: in vivo, 240 h
HOP-62 = assay: Cytotoxicity against human HOP62 cells after 48 hrs by SRB assay; format: functional; conditions: HOP-62, 48 h
A549 [15] = assay: Cytotoxicity against human A549 cells after 48 hrs by SRB assay; format: functional; conditions: A549, 48 h, read-out: pGI50 (converted)
MOLT-4 = assay: Cytotoxicity against human MOLT4 cells after 48 hrs by SRB assay; format: functional; conditions: MOLT-4, 48 h
CCRF-CEM = assay: Cytotoxicity against human CCRF-CEM cells after 48 hrs by SRB assay; format: functional
COLO 205 [16] = assay: Cytotoxicity against human COLO205 cells after 72 hrs by MTT assay; format: functional; conditions: COLO 205, 72 h
A549 [17] = assay: Cytotoxicity against human A549 cells after 72 hrs by MTT assay; format: functional; conditions: A549, 72 h
HOP-92 = assay: Cytotoxicity against human HOP92 cells after 48 hrs by SRB assay; format: functional; conditions: HOP-92, 48 h
NCI-H226 = assay: Cytotoxicity against human NCI-H226 cells after 48 hrs by SRB assay; format: functional; conditions: NCI-H226, 48 h
NCI-H460 = assay: Cytotoxicity against human NCI-H460 cells after 48 hrs by SRB assay; format: functional; conditions: NCI-H460, 48 h
NCI-H522 = assay: Cytotoxicity against human NCI-H522 cells after 48 hrs by SRB assay; format: functional; conditions: NCI-H522, 48 h
HCC 2998 = assay: Cytotoxicity against human HCC2998 cells after 48 hrs by SRB assay; format: functional; conditions: HCC 2998, 48 h
HCT-116 = assay: Cytotoxicity against human HCT116 cells after 48 hrs by SRB assay; format: functional; conditions: HCT-116, 48 h
HCT-15 = assay: Cytotoxicity against human HCT15 cells after 48 hrs by SRB assay; format: functional; conditions: HCT-15, 48 h
KM12 = assay: Cytotoxicity against human KM12 cells after 48 hrs by SRB assay; format: functional; conditions: KM12, 48 h
SF-295 = assay: Cytotoxicity against human SF295 cells after 48 hrs by SRB assay; format: functional; conditions: SF-295, 48 h, read-out: pGI50 (converted)
SF-539 = assay: Cytotoxicity against human SF539 cells after 48 hrs by SRB assay; format: functional; conditions: SF-539, 48 h
SNB-75 = assay: Cytotoxicity against human SNB75 cells after 48 hrs by SRB assay; format: functional; conditions: SNB-75, 48 h
LOX IMVI = assay: Cytotoxicity against human LOXIMVI cells after 48 hrs by SRB assay; format: functional
Malme-3M = assay: Cytotoxicity against human MALME-3M cells after 48 hrs by SRB assay; format: functional
M14 = assay: Cytotoxicity against human M14 cells after 48 hrs by SRB assay; format: functional; conditions: M14, 48 h
UACC-257 = assay: Cytotoxicity against human UACC257 cells after 48 hrs by SRB assay; format: functional; conditions: UACC-257, 48 h
IGROV-1 = assay: Cytotoxicity against human IGROV1 cells after 48 hrs by SRB assay; format: functional; conditions: IGROV-1, 48 h
OVCAR-3 = assay: Cytotoxicity against human OVCAR3 cells after 48 hrs by SRB assay; format: functional; conditions: OVCAR-3, 48 h
OVCAR-4 = assay: Cytotoxicity against human OVCAR4 cells after 48 hrs by SRB assay; format: functional; conditions: OVCAR-4, 48 h
OVCAR-8 = assay: Cytotoxicity against human OVCAR8 cells after 48 hrs by SRB assay; format: functional; conditions: OVCAR-8, 48 h, read-out: pGI50 (converted)
[18] = Cytotoxicity against human 786-O cells after 48 hrs by SRB assay; format: functional; conditions: 786-0, 48 h
CAKI-1 = assay: Cytotoxicity against human Caki1 cells after 48 hrs by SRB assay; format: functional; conditions: CAKI-1, 48 h
RXF 393 = assay: Cytotoxicity against human RXF393 cells after 48 hrs by SRB assay; format: functional; conditions: RXF 393, 48 h
TK-10 = assay: Cytotoxicity against human TK10 cells after 48 hrs by SRB assay; format: functional; conditions: TK-10, 48 h
DU-145 = assay: Cytotoxicity against human DU145 cells after 48 hrs by SRB assay; format: functional; conditions: DU-145, 48 h
BT-549 = assay: Cytotoxicity against human BT549 cells after 48 hrs by SRB assay; format: functional; conditions: BT-549, 48 h

With `CO[C@@H]([C@@H]1Cc2cc3cc(O[C@H]4C[C@@H](O[C@H]5C[C@@H](O)[C@H](O)[C@@H](C)O5)[C@H](O)[C@@H](C)O4)c(C)c(O)c3c(O)c2C(=O)[C@H]1O[C@H]1C[C@@H](O[C@H]2C[C@@H](O[C@H]3C[C@H](O)[C@H](O)[C@@H](C)O3)[C@H](O)[C@@H](C)O2)[C@H](O)[C@@H](C)O1)[C@@H](O)C(C)=O` the GI50 (MDA-MB-468) was 33.9 nM, the MTD [1] was 64 mg/kg and the MTD [2] was 200 mg/kg. The MTD (Mus musculus [3]) was 12 mg/kg, the MTD (Mus musculus [4]) was 24 mg/kg and the concentration at 0.5 h [5] was 1700 nM. For the same compound, the concentration at 2 h [6] was under 100 nM, the TGI (COLO 205 [7]) was “Active” and the TGI (COLO 205 [8]) was “Active”. The TGI (SK-MEL-2) was “Active”, the Activity (Mus musculus [9]) was “Non-toxic” and the Activity (Mus musculus [10]) was “Non-toxic”. For the same compound, the Activity (Mus musculus [11]) was “Non-toxic”, the Activity (Mus musculus [12]) was “Non-toxic” and the Activity (Mus musculus [13]) was “Non-toxic”. The Activity (Mus musculus [14]) was “Non-toxic”, the GI50 (HOP-62) was 24.6 nM and the GI50 (A549 [15]) was 20.4 nM. The GI50 (MOLT-4) was 19.9 nM, the GI50 (CCRF-CEM) was 24.6 nM and the GI50 (COLO 205 [16]) was 300 nM. The GI50 (A549 [17]) was 300 nM, the GI50 (HOP-92) was 26.9 nM and the GI50 (NCI-H226) was 20.4 nM. It also gave a GI50 (NCI-H460) of 17.8 nM, a GI50 (NCI-H522) of 17.8 nM and a GI50 (HCC 2998) of 16.2 nM. It also gave a GI50 (HCT-116) of 16.6 nM, a GI50 (HCT-15) of 1050 nM and a GI50 (KM12) of 17.8 nM. It also gave a GI50 (SF-295) of 19.9 nM, a GI50 (SF-539) of 25.1 nM and a GI50 (SNB-75) of 32.4 nM. The GI50 (LOX IMVI) was 16.6 nM, the GI50 (Malme-3M) was 19.5 nM and the GI50 (M14) was 45.7 nM. For the same compound, the GI50 (UACC-257) was 41.7 nM, the GI50 (IGROV-1; read-out: GI50) was 10 nM and the GI50 (IGROV-1; read-out: pGI50 (converted)) was 10.5 nM. The GI50 (OVCAR-3) was 19.5 nM, the GI50 (OVCAR-4) was 56.2 nM and the GI50 (OVCAR-8) was 35.5 nM. For the same compound, the GI50 [18] was 32.4 nM, the GI50 (CAKI-1) was 138 nM and the GI50 (RXF 393) was 29.5 nM. It also gave a GI50 (TK-10) of 52.5 nM, a GI50 (DU-145) of 20.4 nM and a GI50 (BT-549) of 18.2 nM.
